Assay results published in article PMC6332318, “Synthetic Development of New 3-(4-Arylmethylamino)butyl-5-arylidene-rhodanines under Microwave Irradiation and Their Effects on Tumor Cell Lines and against Protein Kinases” (Molecules, 2015).
Each block holds one compound with its values, some of them ahead of it.

Tests used:
[1] = system: diploid skin fibroblasts; test: in vitro inhibition of cell proliferation / survival assay, normal cells control; format: cell-based; conditions: Skin fibroblast, Fibroblasts; for viability at 25 µM: measured at 25 μM after 48 h, single dose, triplicate, read-out: % of Survival
Protocol: (§1) As an initial effort to investigate their in vitro bioactivity, the new synthesized 3-(4-arylmethylamino)butyl-2-thioxo-1,3-thiazolidine-4-one 9a–n and also their precursors 6a–f were evaluated for their in vitro inhibition of cell proliferation. For this study, we used a panel of seven representative tumoral cell lines, namely HuH7 D12 (differential hepato cellular carcinoma), Caco 2 (differentiating colorectal adenocarcinoma), MDA-MBD231 ([…]), HCT 116 (actively proliferating colorectal adenocarcinoma), PC3 (prostate carcinoma), NCI-H727 (lung carcinoma), HaCat keratinocyte and, diploid skin fibroblasts as normal cell lines for control.
(§2) Skin diploid fibroblastic cells were provided by BIOPREDIC International Company (Rennes, France). Caco2 (Ref ECACC: 86010202), Huh-7D12 (Ref ECACC: 01042712), MDA-MB-231 (Ref ECACC: 92020424), HCT-116 (Ref ECACC: 91091005), PC3 (Ref ECACC: 90112714), NCI-H727 (Ref ECACC: 94060303) cell lines were obtained from the ECACC collection and HaCaT (from Cell Lines Service, Eppelheim, Germany). Cells were grown according to ECACC recommendations. The toxicity test of the compounds on these cells was as follows: 2 × 10^3 cells for HCT-116 cells or 4 × 10^3 for the other cells were seeded in 96 multiwell plates in triplicate and left for 24 h for attachment, spreading and growing. Then, cells were exposed for 48 h to increasing concentrations of the compounds, ranging from 0.1 to 25 μM in a final volume of 120 μL of culture medium. Cells were fixed in cooled solution of 90% ethanol/5% acetic acid, nuclei were stained with Hoechst 3342 (Sigma) and counted using automated imaging analysis (Cellomics Arrayscan VTI/HCS Reader, Thermo/Scientific, Waltham, MA, USA). The IC50 were graphically determined.

[2] = system: MDA-MB231 cells; test: in vitro inhibition of cell proliferation / survival assay; format: cell-based; conditions: Homo sapiens; for viability at 25 µM: MDA-MB-231, measured at 25 μM after 48 h, single dose, triplicate
Protocol: as §1, §2

[3] = system: PC3 cells (prostate carcinoma); test: as above; format: cell-based; conditions: Homo sapiens; for viability at 25 µM: PC-3, measured at 25 μM after 48 h, single dose, triplicate
Protocol: as §1, §2

[4] = system: Caco 2 cells (differentiating colorectal adenocarcinoma); test: as above; format: cell-based; conditions: Homo sapiens; for viability at 25 µM: measured at 25 μM after 48 h, single dose, triplicate
Protocol: as §1, §2

[5] = system: Huh7 D12 cells (differential hepato cellular carcinoma); test: as above; format: cell-based; conditions: for viability at 25 µM: Huh-7D12, measured at 25 μM after 48 h, single dose, triplicate
Protocol: as §1, §2

[6] = system: HaCat keratinocyte; test: as above; format: cell-based; conditions: Homo sapiens; for viability at 25 µM: measured at 25 μM after 48 h, single dose, triplicate
Protocol: as §1, §2

[7] = system: HCT 116 cells (actively proliferating colorectal adenocarcinoma); test: as above; format: cell-based; conditions: Homo sapiens; for viability at 25 µM: measured at 25 μM after 48 h, single dose, triplicate
Protocol: as §1, §2

[8] = system: NCI-H727 cells (lung carcinoma); test: as above; format: cell-based; conditions: Homo sapiens, NCI-H727; for viability at 25 µM: measured at 25 μM after 48 h, single dose, triplicate, read-out: % of Survival
Protocol: as §1, §2

[9] = system: panel of seven representative tumoral cell lines; test: in vitro inhibition of cell proliferation, whole panel; format: cell-based; conditions: all cell lines of the panel, without selectivity; read-out: IC50, moderate antitumor activities in all cell lines of the panel
Protocol: as §1
as §2, with “The toxicity test of the compounds on these cells was as follows: 2 × 10^3 cells for HCT-116 cells or 4 × 10^3 for the other cells were seeded in 96 multiwell plates in triplicate and left for 24 h for attachment, spreading and growing. Then, cells were exposed for 48 h to increasing concentrations of the compounds, ranging from 0.1 to 25 μM in a final volume of 120 μL of culture medium.” left out

[10] = 48 h, average of three assays, standard error ± 0.5 μM

melting point: 191 to 193 °C | IC50 [9]: 10 to 17 µM
SMILES: COc1ccc(CNCCCCN2C(=O)/C(=C/c3ccc(O)c(OC)c3)SC2=S)cc1 [Compound 9d, (5Z)3-[4-(4-Methoxyphenylmethylamino)butyl]-5-(4-hydroxy-3-methoxybenzylidene)-2-thioxo-1,3-thiazolidin-4-one]
IC50 [1, 10]: > 25 µM | viability at 25 µM [1]: 29% | IC50 ([2]; MDA-MB-231, 48 h, average of three assays, standard error ± 0.5 μM): 11 µM | viability at 25 µM [2]: 15% | IC50 ([3]; PC-3, 48 h, average of three assays, standard error ± 0.5 μM): 17 µM | viability at 25 µM [3]: 41% | IC50 [4, 10]: 15 µM | viability at 25 µM [4]: 23% | IC50 ([5]; Huh-7D12, 48 h, average of three assays, standard error ± 0.5 μM): 10 µM | viability at 25 µM [5]: 7% | IC50 ([6]; HaCaT, 48 h, average of three assays, standard error ± 0.5 μM): 10 µM | viability at 25 µM [6]: 2% | IC50 [7, 10]: 10 µM | viability at 25 µM [7]: 1% | IC50 [8, 10]: 10 µM | viability at 25 µM [8]: 11%

melting point: 247 to 251 °C
SMILES: COc1cccc(CNCCCCN2C(=O)/C(=C/c3ccc4c(c3)OCCO4)SC2=S)c1 [Compound 9f, (5Z)3-[4-(3-Methoxyphenylmethylamino)butyl]-5-(2,3-dihydro-1,4-benzodioxin-6-ylmethylene)-2-thioxo-1,3-thiazolidin-4-one]
viability at 25 µM [1]: 134% | viability at 25 µM [2]: 98% | viability at 25 µM [3]: 98% | viability at 25 µM [4]: 110% | viability at 25 µM [5]: 102% | viability at 25 µM [6]: 100% | viability at 25 µM [7]: 113% | viability at 25 µM [8]: 96%

melting point: 225 to 227 °C
SMILES: COc1cccc(/C=C2\SC(=S)N(CCCCNCc3cccc(OC)c3)C2=O)c1 [Compound 9g, (5Z)3-[4-(3-Methoxyphenylmethylamino)butyl]-5-(3-methoxybenzylidene)-2-thioxo-1,3-thiazolidin-4-one]
viability at 25 µM [1]: 100% | viability at 25 µM [2]: 104% | viability at 25 µM [3]: 98% | viability at 25 µM [4]: 117% | viability at 25 µM [5]: 111% | viability at 25 µM [6]: 110% | viability at 25 µM [7]: 118% | viability at 25 µM [8]: 95%

melting point: 200 to 203 °C
SMILES: COc1cc(/C=C2\SC(=S)N(CCCCNCc3ccc4c(c3)OCO4)C2=O)ccc1O [Compound 9k, (5Z)3-[4-(1,3-Benzodioxol-5-ylmethylamino)butyl]-5-(4-hydroxy-3-methoxybenzylidene)-2-thioxo-1,3-thiazolidin-4-one]
viability at 25 µM [1]: 84% | viability at 25 µM [2]: 92% | viability at 25 µM [3]: 83% | viability at 25 µM [4]: 98% | viability at 25 µM [5]: 72% | viability at 25 µM [6]: 80% | viability at 25 µM [7]: 98% | viability at 25 µM [8]: 96%
